Experimental data: patent publication US12128029B2, “Treatment of idiopathic pulmonary fibrosis” (VICORE PHARMA AB, priority 2022, dated 2024)

Tests used:
[1] = test system: patients with IPF; details: over the period of a year; cited from earlier work
[2] = Sensitivity of C21 and salts to light and water; type: physicochemical; details: C21 and salts thereof
[3] = test system: model of obstructive lung disease (specifically COPD); details: cited from earlier work
[4] = test system: subjects with IPF; assay: Phase II, multi-centre, open-label, single-arm trial of the safety, efficacy and pharmacokinetics of C21 in subjects with IPF; details: for mean change in FVC from baseline: C21 100 mg b.i.d. orally (sodium salt capsules), observed data, FIG. 1
Method: The primary objective of the study is/was to investigate the safety of C21, 200 mg daily dose (100 mg b.i.d.) administered orally to subjects with IPF. The secondary objectives are/were to evaluate the effect on lung function decline of C21 and the pharmacokinetics of C21 at the same daily dose. Exploratory objectives include the investigation of a range of laboratory parameters as potential biomarkers of inflammation and fibrosis.
The primary endpoint of the trial is the nature and frequency of adverse events occurring over the trial period.
Secondary endpoints included changes from baseline in: • FVC (defined as the maximum amount of air that can be forcibly exhaled from the lungs after fully inhaling) at Weeks 12, 24 and 36; • plasma concentration of C21 and derived PK parameters evaluated in a sub-set of subjects.
C21 has been administered twice daily to the subjects for 36 weeks as follows: • morning dose: two 50 mg capsules (100 mg C21 or placebo) to be taken with a glass of water after minimum 2 hours fasting; and • afternoon/evening dose: two 50 mg capsules (100 mg C21 or placebo) to be taken with a glass of water after minimum 2 hours fasting. Subjects are required not to eat anything for 1 hour after taking the study drug.
The patients were enrolled to receive C21 (100 mg b.i.d.) for 36 weeks in total.

[5] = interim analysis, 21 subjects, C21 100 mg b.i.d.

In the case of COC(=O)c1ccc2c(c1)NC(=O)/C2=C(\Nc1ccc(N(C)C(=O)CN2CCN(C)CC2)cc1)c1ccccc1 [nintedanib], the “reduction in the rate of decline in lung function (FVC measurements)” value [1] is given as “approximately 50%”.
For Cc1ccc(=O)n(-c2ccccc2)c1 [pirfenidone], the “reduction in the rate of decline in lung function (FVC measurements)” value [1] is listed as “approximately 50%”.
For CCCCOC(=O)NS(=O)(=O)c1sc(CC(C)C)cc1-c1ccc(Cn2ccnc2)cc1 [C21, N-butyloxycarbonyl-3-(4-imidazol-1-ylmethylphenyl)-5-iso-butylthiophene-2-sulfonamide], the “sensitivity to the combined presence of light and water” value [2] is given as “extreme sensitivity”, the “effect on cigarette smoke-induced emphysema” value [3] is given as “prevented cigarette smoke-induced emphysema” and the “effect on lung functions” value [3] is given as “improved lung functions”. The “mean change in FVC from baseline” value ([4]; 24 weeks) was “+250 mL”, the “difference in mean FVC change versus expected mean decline in untreated patients” value ([4]; 24 weeks, expected decline -120 mL, based on previously published IPF trials) was “+371 mL” and the “mean change in FVC from baseline” value ([4]; 36 weeks) was “+750 mL”. The “difference in mean FVC change versus expected mean decline in untreated patients” value ([4]; 36 weeks, expected decline -180 mL) was “+930 mL”, the gastrointestinal signals [4, 5] was “no gastrointestinal signals” and the overall safety profile [4, 5] was “no safety profile concerns”. For the same molecule, the “related serious adverse events” value [4, 5] was “no related serious adverse events”, the “deaths in the ongoing trial” value ([4]; reported to be due to COVID-19 and not related to C21) was 1 and the “p value of slope (change in FVC scaled to 24 weeks, by visit, observed cases) versus expected mean in untreated patients” value ([4]; week 28) was 0.012. The “p value of slope (change in FVC scaled to 24 weeks, by visit, observed cases) versus expected mean in untreated patients” value ([4]; week 32) was 0.032 and the “p value of slope (change in FVC scaled to 24 weeks, by visit, observed cases) versus expected mean in untreated patients” value ([4]; week 36) was 0.016.
